# Assay results: the supplement of paper PMC10307832
# Compound: CC(C)C[C@H](NC(=O)[C@H](CCc1ccccc1)NC(=O)CN1CCOCC1)C(=O)N[C@@H](Cc1ccccc1)C(=O)N[C@@H](CC(C)C)C(=O)[C@@]1(C)CO1 [Carfilzomib] + COc1cc2c(Oc3ccc(NC(=O)C4(C(=O)Nc5ccc(F)cc5)CC4)cc3F)ccnc2cc1OCCCN1CCOCC1 [Foretinib] (partner 0.25 µM)
# Experiment: relative viability (nuclei count vs DMSO), 5 days (fraction); higher = more cells survive
# Details: first compound 0.03162 µM
# In short: (§1)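 Lung cancer cell lines in 1536-well plates got either a single drug or a fixed anchor-drug dose together with five library-drug doses (not always all listed) in √10 steps, by pin tool, on the day after seeding. Nuclei were counted after 5 days, and relative viability is the treated-to-vehicle ratio of nuclei counts. Values are medians of duplicate plates.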
row,Cell Line,relative viability
1,HCC-15,0.589
2,HCC-78,0.571
3,HCC-366,0.648
4,HCC-827,0.928
5,HOP-62,0.328
6,IA-LM,0.0144
7,LC-2-ad,0.903
8,LCLC-97TM1,0.529
9,LCLC-103H,0.646
10,LK-2,0.144
11,NCI-H358,0.0762
12,NCI-H596,0.195
13,NCI-H1299,0.597
14,NCI-H1395,0.527
15,NCI-H1563,0.828
16,NCI-H1623,0.455
17,NCI-H1703,0.126
18,NCI-H1944,0.931
19,NCI-H2170,1.06
20,NCI-H2342,0.988
21,SK-MES-1,0.97
22,SW 900,0.0988

# Same assay, conditions: first compound 0.1 µM
row,Cell Line,relative viability
1,201T,0.29
2,A549,0.0218
3,A-427,0.121
4,ABC-1,0.224
5,BEN,0.339
6,CAL-12T,0.103
7,COR-L23,0.0831
8,COR-L 105,0.26
9,Calu-6,0.0591
10,ChaGo-K-1,0.172
11,EBC-1,0.0611
12,EKVX,0.765
13,EMC-BAC-2,0.221
14,EPLC-272H,0.0461
15,H3255,0.327
16,HARA,0.0561
17,HCC-15,0.149
18,HCC-78,0.322
19,HCC-366,0.121

row,Cell Line,relative viability
1,HCC-827,0.387
2,HOP-62,0.0784
3,IA-LM,0.0167
4,LC-2-ad,0.221
5,LCLC-97TM1,0.25
6,LCLC-103H,0.225
7,LK-2,0.16
8,NCI-H358,0.0649
9,NCI-H596,0.148
10,NCI-H1299,0.117
11,NCI-H1395,0.329
12,NCI-H1563,0.517
13,NCI-H1623,0.514
14,NCI-H1703,0.154
15,NCI-H1944,0.337
16,NCI-H2170,0.397
17,NCI-H2342,0.621
18,SK-MES-1,0.283
19,SW 900,0.116

# Compound: O=C(c1cc(Cc2n[nH]c(=O)c3ccccc23)ccc1F)N1CCN(C(=O)C2CC2)CC1 [Olaparib] + CC(=O)c1c(C)c2cnc(Nc3ccc(N4CCNCC4)cn3)nc2n(C2CCCC2)c1=O [Palbociclib] (partner 0.5 µM)
# Experiment: as above
# Details: first compound 0.08 µM
# In short: as §1
row,Cell Line,relative viability
1,201T,0.392
2,A-427,0.512
3,ABC-1,0.814
4,BEN,0.531
5,CAL-12T,0.0401
6,COR-L23,0.314
7,COR-L 105,0.401
8,ChaGo-K-1,1.03
9,EKVX,0.38
10,EMC-BAC-2,0.518
11,EPLC-272H,0.427
12,H3255,0.32
13,HARA,0.216
14,HCC-15,0.785
15,HCC-44,0.998
16,HCC-78,0.414
17,HCC-366,0.39

row,Cell Line,relative viability
1,HCC-827,0.534
2,HOP-62,0.469
3,LC-2-ad,0.472
4,LCLC-97TM1,0.24
5,LCLC-103H,0.524
6,LK-2,0.697
7,NCI-H358,0.124
8,NCI-H522,1.14
9,NCI-H1395,0.649
10,NCI-H1648,0.236
11,NCI-H1792,0.694
12,NCI-H1944,0.34
13,NCI-H2170,0.427
14,NCI-H2342,0.532
15,SK-MES-1,0.376
16,SW 900,0.606

# Same assay, conditions: first compound 0.253 µM
row,Cell Line,relative viability
1,201T,0.323
2,A-427,0.488
3,BEN,0.454
4,CAL-12T,0.407
5,COR-L23,0.241
6,COR-L 105,0.409
7,ChaGo-K-1,0.908
8,EKVX,0.364
9,EMC-BAC-2,0.512
10,EPLC-272H,0.298
11,H3255,0.315
12,HARA,0.268
13,HCC-15,0.659
14,HCC-44,0.884
15,HCC-78,0.424
16,HCC-366,0.263

row,Cell Line,relative viability
1,HCC-827,0.494
2,HOP-62,0.454
3,LC-2-ad,0.451
4,LCLC-97TM1,0.226
5,LCLC-103H,0.455
6,LK-2,0.723
7,NCI-H358,0.137
8,NCI-H522,0.859
9,NCI-H1395,0.611
10,NCI-H1648,0.305
11,NCI-H1792,0.576
12,NCI-H1944,0.335
13,NCI-H2170,0.395
14,NCI-H2342,0.503
15,SK-MES-1,0.278
16,SW 900,0.492

# Same assay, conditions: first compound 2.53 µM
row,Cell Line,relative viability
1,201T,0.388
2,A-427,0.503
3,ABC-1,0.476
4,BEN,0.451
5,CAL-12T,0.329
6,COR-L23,0.223
7,COR-L 105,0.404
8,ChaGo-K-1,0.908
9,EKVX,0.371
10,EMC-BAC-2,0.517
11,EPLC-272H,0.339
12,H3255,0.336
13,HARA,0.271
14,HCC-15,0.714
15,HCC-44,0.943
16,HCC-78,0.486

row,Cell Line,relative viability
1,HCC-366,0.26
2,HCC-827,0.474
3,HOP-62,0.361
4,LC-2-ad,0.493
5,LCLC-97TM1,0.206
6,LCLC-103H,0.513
7,LK-2,0.888
8,NCI-H358,0.125
9,NCI-H522,0.87
10,NCI-H1395,0.6
11,NCI-H1792,0.63
12,NCI-H1944,0.316
13,NCI-H2170,0.411
14,NCI-H2342,0.471
15,SK-MES-1,0.325
16,SW 900,0.595

# Same assay, conditions: first compound 8 µM
row,Cell Line,relative viability
1,201T,0.337
2,A-427,0.415
3,ABC-1,0.862
4,BEN,0.51
5,CAL-12T,0.479
6,COR-L23,0.14
7,COR-L 105,0.398
8,ChaGo-K-1,0.664
9,EKVX,0.41
10,EMC-BAC-2,0.472
11,EPLC-272H,0.318
12,H3255,0.306
13,HARA,0.276
14,HCC-15,0.722
15,HCC-44,0.969
16,HCC-78,0.464
17,HCC-366,0.168

row,Cell Line,relative viability
1,HCC-827,0.387
2,HOP-62,0.319
3,LC-2-ad,0.399
4,LCLC-97TM1,0.166
5,LCLC-103H,0.494
6,LK-2,0.697
7,NCI-H358,0.14
8,NCI-H522,0.889
9,NCI-H1395,0.499
10,NCI-H1648,0.246
11,NCI-H1792,0.617
12,NCI-H1944,0.271
13,NCI-H2170,0.315
14,NCI-H2342,0.474
15,SK-MES-1,0.254
16,SW 900,0.476

# Compound: O=C(c1cc(Cc2n[nH]c(=O)c3ccccc23)ccc1F)N1CCN(C(=O)C2CC2)CC1 [Olaparib] + CC(C)C[C@H](NC(=O)[C@H](Cc1ccccc1)NC(=O)c1cnccn1)B(O)O [Bortezomib] (partner 0.002 µM)
# Experiment: as above
# Details: first compound 0.08 µM
# In short: as §1
row,Cell Line,relative viability
1,201T,1.19
2,A-427,1.03
3,ABC-1,0.308
4,BEN,0.651
5,CAL-12T,1.16
6,COR-L23,1.06
7,COR-L 105,0.936
8,Calu-6,1.13
9,ChaGo-K-1,1.27
10,EBC-1,0.654
11,EKVX,1.42
12,EMC-BAC-2,1.09
13,EPLC-272H,1.1
14,H3255,0.935
15,HARA,1.25
16,HCC-15,1.18
17,HCC-44,0.915
18,HCC-78,0.489
19,HCC-366,1.06
20,HCC-827,1.01
21,HOP-62,1.21
22,IA-LM,0.743
23,LC-2-ad,1.15
24,LCLC-97TM1,0.729
25,LCLC-103H,1.04
26,NCI-H596,1.3
27,NCI-H1299,1.07
28,NCI-H1563,0.876
29,NCI-H1703,0.367
30,NCI-H1792,1.02

# Same assay, conditions: first compound 0.253 µM
row,Cell Line,relative viability
1,201T,1.03
2,A-427,0.96
3,ABC-1,0.332
4,BEN,0.632
5,CAL-12T,0.842
6,COR-L23,0.862
7,COR-L 105,0.85
8,Calu-6,0.959
9,ChaGo-K-1,0.96
10,EBC-1,0.541
11,EKVX,0.987
12,EMC-BAC-2,1.04
13,EPLC-272H,0.819
14,H3255,0.728
15,HARA,1.04
16,HCC-15,0.984
17,HCC-44,0.873
18,HCC-78,0.545
19,HCC-366,0.959
20,HCC-827,0.943
21,HOP-62,0.55
22,IA-LM,0.739
23,LC-2-ad,0.922
24,LCLC-97TM1,0.475
25,LCLC-103H,1.07
26,NCI-H596,0.878
27,NCI-H1299,0.97
28,NCI-H1563,0.881
29,NCI-H1703,0.301
30,NCI-H1792,0.735

# Same assay, conditions: first compound 2.53 µM
row,Cell Line,relative viability
1,201T,1.11
2,A-427,0.877
3,ABC-1,0.323
4,BEN,0.881
5,CAL-12T,1.04
6,COR-L23,0.92
7,COR-L 105,0.464
8,Calu-6,0.796
9,ChaGo-K-1,1.02
10,EBC-1,0.523
11,EKVX,0.995
12,EMC-BAC-2,1.07
13,EPLC-272H,0.965
14,H3255,0.703
15,HARA,1.06
16,HCC-15,1.03
17,HCC-44,0.952
18,HCC-78,0.496
19,HCC-366,0.913
20,HCC-827,1.03
21,HOP-62,0.556
22,IA-LM,0.745
23,LC-2-ad,0.908
24,LCLC-97TM1,1.03
25,LCLC-103H,1.05
26,NCI-H596,0.865
27,NCI-H1299,1.04
28,NCI-H1563,0.896
29,NCI-H1703,0.445
30,NCI-H1792,0.804

# Same assay, conditions: first compound 8 µM
row,Cell Line,relative viability
1,201T,1.07
2,A-427,0.673
3,ABC-1,0.33
4,BEN,0.829
5,CAL-12T,1.03
6,COR-L23,0.474
7,COR-L 105,0.426
8,Calu-6,0.777
9,ChaGo-K-1,0.845
10,EBC-1,0.472
11,EKVX,0.994
12,EMC-BAC-2,0.967
13,EPLC-272H,0.848
14,H3255,0.728
15,HARA,0.769
16,HCC-15,0.9
17,HCC-44,0.893
18,HCC-78,0.537
19,HCC-366,0.384
20,HCC-827,0.95
21,HOP-62,0.211
22,IA-LM,0.659
23,LC-2-ad,0.556
24,LCLC-97TM1,0.276
25,LCLC-103H,0.948
26,NCI-H596,0.794
27,NCI-H1299,0.968
28,NCI-H1563,0.692
29,NCI-H1703,0.417
30,NCI-H1792,0.784
